Reference: the supplement of paper PMC11061612

Tests used:
Assay in all cases: combination Emax (second highest fraction inhibited in the dose matrix, 72 h); higher = more inhibition; extreme values may be limits of the assay
[1] = system: SNU-449 (Hepatocellular Carcinoma)
How it was run: (§1)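 Bliss excess equals the observed combination effect minus the expected value EA + EB − EA·EB, where EA and EB are the effects of each agent alone. Combination Emax is the second-highest inhibition within the matrix. Inhibition was scaled from CellTiter-Glo 2.0 luminescence, with 0 set by vehicle wells and 1 by blank wells, after 72 hours of two-drug dosing of cells plated in 1536-well plates.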

[2] = system: ESS-1 (Other Solid Carcinomas)
How it was run: as §1

[3] = system: HuCCT1 (Biliary Tract Carcinoma)
How it was run: as §1

[4] = system: KYAE-1 (Esophageal Adenocarcinoma)
How it was run: as §1

[5] = system: HuH-7 (Hepatocellular Carcinoma)
How it was run: as §1

[6] = system: OVCAR-5 (Ovarian Carcinoma)
How it was run: as §1

A673 (Ewing's Sarcoma) = system: A673 (Ewing's Sarcoma)
How it was run: as §1

[7] = system: NCI-H1568 (Lung Adenocarcinoma)
How it was run: as §1

BPH-1 (Non-Cancerous) = system: BPH-1 (Non-Cancerous)
How it was run: as §1

[8] = system: SAS (Oral Cavity Carcinoma)
How it was run: as §1

[9] = system: KMRC-20 (Kidney Carcinoma)
How it was run: as §1

[10] = system: BE-13 (T-Lymphoblastic Leukemia)
How it was run: as §1

[11] = system: L-428 (Hodgkin's Lymphoma)
How it was run: as §1

[12] = system: WSU-NHL (B-Cell Non-Hodgkin's Lymphoma)
How it was run: as §1

[13] = system: OE21 (Esophageal Squamous Cell Carcinoma)
How it was run: as §1

[14] = system: CAL-33 (Oral Cavity Carcinoma)
How it was run: as §1

[15] = system: NUGC-4 (Gastric Carcinoma)
How it was run: as §1

GAMG (Glioblastoma) = system: GAMG (Glioblastoma)
How it was run: as §1

[16] = system: OV-56 (Ovarian Carcinoma)
How it was run: as §1

[17] = system: ALL-PO (B-Lymphoblastic Leukemia)
How it was run: as §1

SMILES | combination Emax [1] | combination Emax [2] | combination Emax [3] | combination Emax [4] | combination Emax [5] | combination Emax [6] | combination Emax (A673 (Ewing's Sarcoma)) | combination Emax [7] | combination Emax (BPH-1 (Non-Cancerous)) | combination Emax [8] | combination Emax [9] | combination Emax [10] | combination Emax [11] | combination Emax [12] | combination Emax [13] | combination Emax [14] | combination Emax [15] | combination Emax (GAMG (Glioblastoma)) | combination Emax [16] | combination Emax [17]
C[C@@H](c1ccc2nccn2c1)n1nnc2ncc(-c3cnn(C)c3)nc21 [Savolitinib] + Cc1c2c(nn1C)CSCc1cc(n(C)n1)CSc1cc(c3ccccc3c1)OCCCc1c(C(=O)O)n(C)c3c-2c(Cl)ccc13 [AZD5991] (first compound max 1 µM, 7x7, partner max 1 µM) | 0.154 | 0.16 | 0.117 | 0.137 | 0.207 | 0.137 | 0.302 | 0.147 | 0.199 | 0.151 | 0.195 | 0.383 | 0.0947 | 0.743 | 0.355 | 0.181 | 0.221 | 0.167 | 0.151 | 1
COc1cc2c(cc1OCCCCCOc1cc3c(cc1OC)C(=O)N1C=C(C)C[C@H]1C=N3)N=C[C@@H]1CC(C)=CN1C2=O [SG3199] + O=C(c1cc(Cc2n[nH]c(=O)c3ccccc23)ccc1F)N1CCN(C(=O)C2CC2)CC1 [Olaparib] (first compound max 0.001 µM, 7x7, partner max 10 µM) | 0.0573 | 0.346 | 0.0094 | 0.128 | 0.12 | 0.0819 | 0.563 | 0.191 | 0.354 | 0.164 | 0.128 | 0.283 | 0.0689 | 0.763 | 0.133 | 0.143 | 0.219 | 0.104 | 0.131 | 0.646
C[C@@H](c1ccc2nccn2c1)n1nnc2ncc(-c3cnn(C)c3)nc21 [Savolitinib] + CC1(C)CCC(CN2CCN(c3ccc(C(=O)NS(=O)(=O)c4ccc(NCC5CCOCC5)c([N+](=O)[O-])c4)c(Oc4cnc5[nH]ccc5c4)c3)CC2)=C(c2ccc(Cl)cc2)C1 [Venetoclax] (first compound max 1 µM, 7x7, partner max 1 µM) | 0.157 | 0.136 | 0.107 | 0.0925 | 0.15 | 0.0951 | 0.309 | 0.0767 | 0.136 | 0.138 | 0.148 | 0.196 | 0.117 | 0.315 | 0.0581 | 0.154 | 0.167 | 0.202 | 0.158 | 0.337
Cc1cc2ncnn2cc1Nc1ncc2c(n1)n(C1CCOCC1)c(=O)n2C [AZD7648] + CN(C)CCCOc1ccc(-c2ccc3ncc4c(c3c2)n(C2CCOCC2)c(=O)n4C)cn1 [AZD0156] (first compound max 10 µM, 7x7, partner max 1 µM) | 0.282 | 0.481 | 0.389 | 0.121 | 0.201 | 0.287 | 0.336 | 0.24 | 0.378 | 0.307 | 0.201 | 0.323 | 0.37 | 0.498 | 0.554 | 0.375 | 0.216 | 0.402 | 0.224 | 0.265
Cc1nc(Nc2ncc(C(=O)Nc3c(C)cccc3Cl)s2)cc(N2CCN(CCO)CC2)n1 [Dasatinib] + CC(=O)Nc1cccc(-n2c(=O)n(C3CC3)c(=O)c3c(Nc4ccc(I)cc4F)n(C)c(=O)c(C)c32)c1 [Trametinib] (first compound max 2 µM, 7x7, partner max 1 µM) | 0.691 | 0.776 | 0.772 | 0.0573 | 0.662 | 0.905 | 0.237 | 0.668 | 0.744 | 0.713 | 0.57 | 0.607 | 0.128 | 0.962 | 0.723 | 0.629 | 0.431 | 0.476 | 0.446 | 0.451
